In PMC11584562 (The Journal of Biological Chemistry, 2024):
Blank lines part the entries; values can stand above or below the molecule they belong to.

Key:
CnKbc1 [1] = target: T1, CnKbc1 (Cryptococcus neoformans, UniProt J9VT24); assay: biochemical
T1 sequence (J9VT24 1-696): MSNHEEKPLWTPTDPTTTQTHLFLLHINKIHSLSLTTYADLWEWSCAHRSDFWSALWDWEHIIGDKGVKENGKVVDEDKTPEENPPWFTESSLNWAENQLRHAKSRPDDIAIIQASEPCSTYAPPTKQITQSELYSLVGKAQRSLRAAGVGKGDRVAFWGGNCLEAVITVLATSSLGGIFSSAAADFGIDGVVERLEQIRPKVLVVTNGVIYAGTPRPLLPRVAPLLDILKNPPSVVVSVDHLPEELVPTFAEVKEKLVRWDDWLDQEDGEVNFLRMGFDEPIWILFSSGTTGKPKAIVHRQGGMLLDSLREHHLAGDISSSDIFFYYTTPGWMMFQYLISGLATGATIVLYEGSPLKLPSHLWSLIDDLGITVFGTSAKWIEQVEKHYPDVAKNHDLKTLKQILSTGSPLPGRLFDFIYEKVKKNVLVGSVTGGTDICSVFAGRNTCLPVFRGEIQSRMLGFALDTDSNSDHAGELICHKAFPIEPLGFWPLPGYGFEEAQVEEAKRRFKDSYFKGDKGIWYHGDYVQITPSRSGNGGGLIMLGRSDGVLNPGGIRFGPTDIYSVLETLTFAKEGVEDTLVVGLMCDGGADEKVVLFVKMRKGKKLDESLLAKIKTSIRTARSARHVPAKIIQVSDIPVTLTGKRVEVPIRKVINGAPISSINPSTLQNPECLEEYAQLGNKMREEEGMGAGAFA

CnAcs1 [2] = target: T2, CnAcs1 (Cryptococcus neoformans, UniProt J9VFT1); assay: biochemical
T2 sequence (J9VFT1 1-680): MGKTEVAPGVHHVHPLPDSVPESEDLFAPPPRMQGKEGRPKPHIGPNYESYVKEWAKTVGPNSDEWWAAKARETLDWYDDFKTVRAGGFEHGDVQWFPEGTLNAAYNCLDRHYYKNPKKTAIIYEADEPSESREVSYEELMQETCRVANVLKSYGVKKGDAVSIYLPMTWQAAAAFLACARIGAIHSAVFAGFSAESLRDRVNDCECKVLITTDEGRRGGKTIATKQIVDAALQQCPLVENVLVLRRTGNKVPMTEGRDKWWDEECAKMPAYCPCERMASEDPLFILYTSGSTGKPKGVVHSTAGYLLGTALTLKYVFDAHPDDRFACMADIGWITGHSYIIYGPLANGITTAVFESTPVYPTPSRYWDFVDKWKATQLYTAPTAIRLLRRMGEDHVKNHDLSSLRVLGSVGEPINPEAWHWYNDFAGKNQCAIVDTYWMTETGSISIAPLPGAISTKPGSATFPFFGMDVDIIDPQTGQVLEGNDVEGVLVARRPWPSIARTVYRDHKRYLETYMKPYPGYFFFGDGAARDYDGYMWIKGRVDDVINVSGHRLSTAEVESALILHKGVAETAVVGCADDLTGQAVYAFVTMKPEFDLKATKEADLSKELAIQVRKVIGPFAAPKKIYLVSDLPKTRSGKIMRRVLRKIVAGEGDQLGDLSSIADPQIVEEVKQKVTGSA

LiAcs1 [3] = target: T3, LiAcs1 (Leishmania infantum, UniProt A4I093); assay: EnzChek pyrophosphate-release coupled assay; assay type: biochemical
T3 sequence (A4I093 1-705): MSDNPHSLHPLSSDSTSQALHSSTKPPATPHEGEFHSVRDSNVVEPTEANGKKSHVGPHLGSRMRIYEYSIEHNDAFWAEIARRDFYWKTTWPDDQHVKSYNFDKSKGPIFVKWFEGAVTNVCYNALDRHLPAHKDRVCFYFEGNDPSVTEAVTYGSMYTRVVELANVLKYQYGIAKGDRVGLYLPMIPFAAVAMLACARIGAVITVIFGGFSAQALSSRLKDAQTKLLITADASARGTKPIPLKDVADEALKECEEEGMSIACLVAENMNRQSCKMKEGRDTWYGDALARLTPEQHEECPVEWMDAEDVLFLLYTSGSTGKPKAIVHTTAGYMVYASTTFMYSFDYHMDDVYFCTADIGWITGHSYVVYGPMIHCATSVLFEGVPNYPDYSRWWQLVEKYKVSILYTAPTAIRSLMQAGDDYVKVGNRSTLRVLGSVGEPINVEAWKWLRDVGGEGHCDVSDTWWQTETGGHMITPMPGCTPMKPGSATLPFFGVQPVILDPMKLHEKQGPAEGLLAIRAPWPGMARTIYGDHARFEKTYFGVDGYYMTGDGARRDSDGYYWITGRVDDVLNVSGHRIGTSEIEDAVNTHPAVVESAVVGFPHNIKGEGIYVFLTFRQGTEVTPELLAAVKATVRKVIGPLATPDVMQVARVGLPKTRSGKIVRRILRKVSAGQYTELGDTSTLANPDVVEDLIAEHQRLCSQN

CnKbc1 [4] = target: T1, CnKbc1; assay: EnzChek pyrophosphate-release coupled assay; assay type: biochemical
CnAcs1 [5] = target: T2, CnAcs1; assay: EnzChek pyrophosphate-release coupled assay; assay type: biochemical
LiAcs1 [6] = target: T3, LiAcs1; assay: biochemical
CnAcs1 [7] = target: T2, CnAcs1; assay: biochemical; remark: listed apart in the source
CnKbc1 [8] = target: T1, CnKbc1; assay: biochemical; remark: listed apart in the source
LiAcs1 [9] = target: T3, LiAcs1; assay: biochemical; remark: listed apart in the source
[10] = substrate: CC(=O)CC(=O)O; assay: EnzChek pyrophosphate-release coupled assay; assay type: biochemical, Leishmania infantum; settings: ATP and CoA as co-substrates, 4 mM MgCl2, 37 °C
[11] = substrate: CC(=O)O; assay: EnzChek pyrophosphate-release coupled assay; assay type: biochemical, Leishmania infantum; settings: ATP and CoA as co-substrates, 4 mM MgCl2, 37 °C

- IC50 (CnKbc1 [1]): > 100 µM
- IC50 (LiAcs1 [3]): 13.5 µM
- IC50 (CnAcs1 [5]): 21.1 µM
Molecule: CCCOP(=O)(O)OC[C@H]1O[C@@H](n2cnc3c(N)ncnc32)[C@H](O)[C@@H]1O [iv, Propyl-AMP]

- IC50 (CnKbc1 [1]): > 100 µM
- IC50 (LiAcs1 [3]): 6.7 µM
- IC50 (CnAcs1 [5]): 25.3 µM
Molecule: CC(C)OP(=O)(O)OC[C@H]1O[C@@H](n2cnc3c(N)ncnc32)[C@H](O)[C@@H]1O [v, Isopropyl-AMP]

- IC50 (CnKbc1 [1]): > 100 µM
- IC50 (LiAcs1 [3]): 12.5 µM
- IC50 (CnAcs1 [5]): 41 µM
Molecule: C=CCOP(=O)(O)OC[C@H]1O[C@@H](n2cnc3c(N)ncnc32)[C@H](O)[C@@H]1O [vi, Allyl-AMP]

- IC50 (CnKbc1 [1]): > 100 µM
- IC50 (LiAcs1 [3]): 10.2 µM
- IC50 (CnAcs1 [5]): 55.1 µM
Molecule: C#CCOP(=O)(O)OC[C@H]1O[C@@H](n2cnc3c(N)ncnc32)[C@H](O)[C@@H]1O [vii, Propargyl-AMP]

- IC50 (CnKbc1 [4]): 7.8 µM
- IC50 (LiAcs1 [6]): > 100 µM
- IC50 (CnAcs1 [2]): > 100 µM
Molecule: CCCCOP(=O)(O)OC[C@H]1O[C@@H](n2cnc3c(N)ncnc32)[C@H](O)[C@@H]1O [viii, Butyl-AMP]

More lines, now with the values behind:

Molecule: COP(=O)(O)OC[C@H]1O[C@@H](n2cnc3c(N)ncnc32)[C@H](O)[C@@H]1O [i, Methyl-AMP]
- IC50 (CnKbc1 [1]): > 100 µM
- IC50 (CnAcs1 [2]): > 100 µM
- IC50 (LiAcs1 [3]): 69.9 µM

Molecule: CCOP(=O)(O)OC[C@H]1O[C@@H](n2cnc3c(N)ncnc32)[C@H](O)[C@@H]1O [ii, Ethyl-AMP]
- IC50 (CnKbc1 [4]): > 100 µM
- IC50 (LiAcs1 [3]): 2 µM
- IC50 (CnAcs1 [5]): 8 µM

Molecule: Nc1ncnc2c1ncn2[C@@H]1O[C@H](COP(=O)(O)OC2CC2)[C@@H](O)[C@H]1O [iii, Cyclopropyl-AMP]
- IC50 (CnKbc1 [1]): > 100 µM
- IC50 (LiAcs1 [3]): 2.2 µM
- IC50 (CnAcs1 [5]): 8.7 µM

Molecule: Nc1ncnc2c1ncn2[C@@H]1O[C@H](COP(=O)(O)OC2CCCC2)[C@@H](O)[C@H]1O [x, Cyclopentyl-AMP]
- IC50 (CnAcs1 [7]): > 100 µM
- IC50 (CnKbc1 [8]): > 100 µM
- IC50 (LiAcs1 [9]): > 100 µM

B1: LiAcs1 (Leishmania infantum) (protein)
chain: T3 sequence (A4I093 1-705)
- Km [10]: 88 (95% CI 71, 110) μM
- Km [11]: 61 (95% CI 45, 83) μM
